Series [1] addresses T1, thrombin receptor (guinea pig gastric longitudinal muscle strips) (Cavia porcellus, UniProt A0A286XH07).
T1 sequence (A0A286XH07 24-426): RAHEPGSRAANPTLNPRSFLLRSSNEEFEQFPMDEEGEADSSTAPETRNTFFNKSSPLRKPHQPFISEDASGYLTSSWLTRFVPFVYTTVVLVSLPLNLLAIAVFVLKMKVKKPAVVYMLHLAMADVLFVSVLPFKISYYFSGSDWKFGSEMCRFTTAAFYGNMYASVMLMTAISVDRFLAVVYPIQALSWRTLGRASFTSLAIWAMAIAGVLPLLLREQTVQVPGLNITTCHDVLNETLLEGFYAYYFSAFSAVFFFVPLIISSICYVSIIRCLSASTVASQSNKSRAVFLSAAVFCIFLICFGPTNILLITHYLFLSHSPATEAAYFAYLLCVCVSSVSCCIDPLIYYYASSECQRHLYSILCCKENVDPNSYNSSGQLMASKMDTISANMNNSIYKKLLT
The settings on record: for Effect of inhibitor on contractile actions of P5--NH2 and Pr-P4: GLM. How it is done: (§1) The guinea pig gastric longitudinal muscle (GLM) strips and the rat thoracic aorta (RA) ring preparations were isolated as previously described 14, 15. In brief, gastric LM strips (3×10 mm), obtained from male albino Hartley strain guinea pigs were equilibrated for about 1.5 h at 37° (in an aerated (95% O2 /5% CO2) Krebs-Henseleit buffer (3 mL) of the following composition (in mM): NaCl, 118; KCl, 4.7; CaCl2, 2.5; MgCl2, 1.2; NaHCO3, 25; KH2 PO4, 1.2; and glucose, 10. The pH was maintained at 7.4. Rat gastric LM strips (3×10 mm) were obtained, as for the GLM strips, from male albino Sprague Dawley animals (250-300 g). The stomach, opened along the greater curvature, was stripped free of all mucosal tissue under microscopic visualization and longitudinal tissue strips were cut exactly at right angles to the visible circular muscle bundles. Tissue strips were pre-equilibrated in the buffer described above. Each tissue was challenged twice each in succession at timed intervals with 50 nM carbachol (20 min intervals), 1 μM angiotensin-II (1 h intervals) and 95 μM (60 μg/mL) receptor pentapeptide (P5, SFLLR, SEQ ID NO: 2) (25 min intervals for GLM; 30-35 min for RLM); tissues were washed at 10 and 15 min after the additions of agonists. Contractions were monitored isometrically using Statham force-displacement transducers. Only tissues responding well to all three agonists were used further for the evaluation of the biological activities of P5 and other peptide agonists.

Series [2] has as its system thrombin receptor (rat thoracic aorta rings, intact endothelium). Conditions: for Agonist (relaxation) activity: precontracted with 0.1 μM noradrenaline.
Method: Thoracic RA rings (2 mm×3 mm), obtained from male albino Sprague Dawley rats, were equilibrated (about 1 h, 37° ) in the same organ bath buffer as was used for the LM tissue, and tension (baseline 1.0 g) was monitored isometrically using either Statham or Grass force-displacement transducers. The presence of an intact endothelium was ascertained by monitoring a relaxation response to acetylcholine (ACh, 1 μM) in a preparation that was submaximally (EC75) contracted by 0.1 μM noradrenaline (NA) in the presence of 0.1 mM ascorbic acid (to preserve the catecholamine). Only tissues yielding a relaxation concentration-response curve between 0.01 and 10 μM acetylcholine (maximal relaxation of 70 to 90%, relative to the tension developed by 0.1 μM NA) were used for the further evaluation of the receptor-derived peptides. The assay of TRP responsiveness was done (e.g. see FIG. 1) on tissues that were precontacted with 0.1 μM NA at 30 min time intervals. Tissues were washed approx. 5 min after the application of TRPs. […] For purposes of comparison, the same stock solutions of an individual peptide were evaluated, relative to P5, in both the RA and LM bioassays. When possible, both assays were done simultaneously on the same day.
Weighed peptide samples were routinely dissolved in 50 mM phosphate buffer, pH 7.4, to yield stock solutions, from which volumes of up to 0.2 mL were added directly to the organ bath; the concentrations of all stock solutions used were verified by quantitative amino acid analysis of aliquots. Pr-P4 and Pr-P4--NH2 were dissolved in 40 mM phosphate buffer, pH 7.4, containing 20% v/v absolute ethanol (i.e. 8 Vol of the above 50 mM phosphate buffer +2 Vol. ethanol). […] Indomethacin was dissolved in ethanol, such that the final ethanol concentration in the organ bath was at or lower than 0.01% v/v; this concentration of ethanol alone had no effect on the bioassay systems.
Series [3] addresses T2, thrombin receptor (rat gastric longitudinal muscle strips) (Rattus norvegicus, UniProt P26824).
T2 construct: Rat gastric LM strips (3×10 mm) were obtained; from tissue; host or cells: rat (Sprague Dawley) gastric longitudinal muscle strips
T2 sequence (P26824 22-432): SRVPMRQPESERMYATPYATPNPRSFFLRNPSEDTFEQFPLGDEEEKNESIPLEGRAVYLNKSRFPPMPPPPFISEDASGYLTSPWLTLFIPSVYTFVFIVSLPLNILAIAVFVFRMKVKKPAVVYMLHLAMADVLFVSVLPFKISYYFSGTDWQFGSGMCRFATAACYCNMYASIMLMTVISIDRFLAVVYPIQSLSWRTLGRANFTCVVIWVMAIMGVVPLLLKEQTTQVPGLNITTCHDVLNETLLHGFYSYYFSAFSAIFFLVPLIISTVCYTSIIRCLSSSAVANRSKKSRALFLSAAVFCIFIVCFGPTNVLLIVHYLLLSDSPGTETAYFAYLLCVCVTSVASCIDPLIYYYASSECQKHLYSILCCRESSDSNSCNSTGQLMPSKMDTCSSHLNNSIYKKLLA
The experiment in a line: Rat gastric longitudinal muscle (RLM) strip contractile assay. It is filed as cell-based.
Excerpt: We obtained an evaluation of the potencies of the various TRPs, relative to P5, by using the linear portions of the concentration-effect curves, so as to calculate for several response levels the average ratio of concentrations (REC) of an individual TRP, relative to concentration of P5 that caused the same contractile response (i.e. REC =ECTRP .div.ECPS). […] In the RA assay, a similar approach to the estimate of relative potencies (REC S) was used, even though all agonists, except for P5--OCH3, appeared to cause equivalent maximal relaxation (FIG. 2, lower).
as §1, with “peptide agonists. For the GLM and RLM assays, concentration-effect curves for all peptides were constructed by expressing the response of each agonist as a percentage (% P595) relative to the contraction caused by 95 μM (60 μg/mL) P5 (0.9±0.1 g tension: mean ±S.E.M. for n=12 in the GLM; 1.6±0.9 g tension: mean ±S.E.M. for n=36 in the RLM).” for “peptide agonists.”
Weighed peptide samples were routinely dissolved in 50 mM phosphate buffer, pH 7.4, to yield stock solutions, from which volumes of up to 0.2 mL were added directly to the organ bath; the concentrations of all stock solutions used were verified by quantitative amino acid analysis of aliquots. Pr-P4 and Pr-P4--NH2 were dissolved in 40 mM phosphate buffer, pH 7.4, containing 20% v/v absolute ethanol (i.e. 8 Vol of the above 50 mM phosphate buffer +2 Vol. ethanol). Control aliquots of the ethanol-containing phosphate buffer alone had no effect on either of the bioassay systems. Acetylcholine, carbachol, indomethacin, noradrenaline and angiotensin-II and thrombin (human, 3000 to 4000 U/mg; 1 U/mL.perspectiveto.10 nM) were from Sigma (St. Louis, Mo.); genistein (GS) was from ICN Biochemicals, Costa Mesa, Calif. Tyrphostin (TP) (RG 50864, also designated AG213) was obtained through the courtesy of Dr. R. R. Swillo, Rhone-Poulenc Rorer (Collegeville, Pa). […] Indomethacin was dissolved in ethanol, such that the final ethanol concentration in the organ bath was at or lower than 0.01% v/v; this concentration of ethanol alone had no effect on the bioassay systems.

[4] abbreviates: average concentration ratio relative to P5 causing equal contractile response (REC = EC TRP ÷ EC P5).
Where [5] appears, read: average concentration ratio relative to P5 causing equal relaxation response (REC = EC TRP ÷ EC P5).

Read-outs that look alike come from different tables or passages of the source. Residues, ends and D or L forms follow the SMILES beside them. *: point of attachment. Propionyl = CCC(=O)*

Regarding `CCC(=O)N[C@@H](Cc1ccccc1)C(=O)N[C@@H](CC(C)C)C(=O)N[C@@H](CC(C)C)C(=O)N[C@@H](CCCNC(=N)N)C(=O)O` [Pr-P4, N-propionyl-F43 LLR46] (Propionyl-FLLR-OH), in series [1], the “Relative potency (REC) GLM” value was 1. Moreover, the “Relative potency (REC) RA” value in series [2] is on record as 0.1.

`CC(C)C[C@H](NC(=O)[C@H](CC(C)C)NC(=O)[C@H](Cc1ccccc1)NC(=O)[C@@H](N)CO)C(=O)N[C@@H](CCCNC(=N)N)C(=O)N[C@@H](CC(N)=O)C(=O)N1CCC[C@H]1C(=O)O` [P7, S42 FLLRNP48] (H-SFLLRNP-OH): the “Relative potency (REC) GLM” value in series [1] (setting [4]) came to 0.4. Also, in series [2] (setting [5]), the “Relative potency (REC) RA” value came to 1.1.

In the case of `CC(C)C[C@H](NC(=O)[C@H](CC(C)C)NC(=O)[C@H](Cc1ccccc1)NC(=O)[C@@H](N)CO)C(=O)N[C@@H](CCCCN)C(=O)O` [PK5, S42 FLLK46] (H-SFLLK-OH), the “Relative potency (REC) GLM” value in series [1] was determined as 4.5. In addition, in series [2], the “Relative potency (REC) RA” value stood at 1.3.

Regarding `CC(C)C[C@H](NC(=O)[C@H](CC(C)C)NC(=O)[C@H](Cc1ccccc1)NC(=O)[C@@H](N)CO)C(=O)N[C@@H](CCCN=C(N)N)C(=O)N[C@@H](CC(N)=O)C(=O)N1CCC[C@H]1C(N)=O` [P7-NH2, S42 FLLRNP48 -amide] (H-SFLLRNP-NH2), in series [3], the “Relative potency (REC) RLM” value was 0.1.

Turning to `CC(C)C[C@H](NC(=O)[C@H](CC(C)C)NC(=O)[C@H](Cc1ccccc1)NC(=O)[C@H](C)N)C(=O)N[C@@H](CCCNC(=N)N)C(=O)O` [AP5, A42 FLLR46] (H-AFLLR-OH), the “Relative potency (REC) GLM” value in series [1] is recorded as 1.8. Moreover, the “Relative potency (REC) RA” value in series [2] stood at 1.7.

For `CC(C)C[C@H](NC(=O)[C@H](CC(C)C)NC(=O)[C@H](Cc1ccccc1)NC(=O)[C@@H](N)CO)C(=O)N[C@@H](CCCNC(=N)N)C(=O)N[C@@H](CC(N)=O)C(=O)N1CCC[C@H]1C(N)=O` [P7-NH2, S42 FLLRNP48 -amide] (H-SFLLRNP-NH2), the “Relative potency (REC) GLM” value in series [1] (setting [4]) is given as 0.04. The “Agonist (relaxation) activity” value in series [2] (RA) was “active”. For the same compound, the “Relative potency (REC) RA” value in series [2] (setting [5]) was determined as 0.08.

For the compound `CC(C)C[C@H](NC(=O)[C@H](CC(C)C)NC(=O)[C@H](Cc1ccccc1)NC(=O)[C@@H](N)CO)C(=O)N[C@@H](CCCN=C(N)N)C(=O)N[C@@H](CC(N)=O)C(=O)N1CCC[C@H]1C(=O)O` [P7, S42 FLLRNP48] (H-SFLLRNP-OH), the “Relative potency (REC) RLM” value in series [3] is on record as 0.3.

In the case of `COc1ccc2c(c1)c(CC(=O)O)c(C)n2C(=O)c1ccc(Cl)cc1` [indomethacin, reference compound], the “Effect of inhibitor on contractile actions of P5--NH2 and Pr-P4” value (shortened to “Effect of inhibitor … of P5--NH2 and Pr-P4”) in series [1] is “blocked”. Further, the “Inhibition of the RLM response to P5-NH2” value in series [3] was 40±6 % inhibition. Further, in series [3] (RLM), the “Effect of inhibitor on contractile action of carbachol” value is “unaffected”. Also, the “Effect of inhibitor on RA relaxation responses to TRPs” value in series [2] (RA, P5-NH2 and Pr-P4) is reported as “not inhibited”.

On to `CCC(=O)N[C@@H](Cc1ccccc1)C(=O)N[C@@H](CC(C)C)C(=O)N[C@@H](CC(C)C)C(=O)N[C@@H](CCCNC(=N)N)C(N)=O` [Pr-P4-NH2, N-propionyl-F43 -LLR46 -amide] (Propionyl-FLLR-NH2), for which the “Relative potency (REC) RA” value in series [2] (setting [5]) was “A”.

For `CC(C)C[C@H](NC(=O)[C@H](Cc1ccccc1)NC(=O)[C@H](Cc1ccccc1)NC(=O)[C@@H](N)CO)C(=O)N[C@@H](CCCNC(=N)N)C(N)=O` [Ra-P5-NH2, SFFLR-amide] (H-SFFLR-NH2), the “Relative potency (REC) RLM” value in series [3] worked out at 0.07. Moreover, the “Agonist (contractile) activity” value in series [3] (RLM) is reported as “most potent of all of the peptides we examined”. Moreover, the “Agonist (relaxation) activity” value in series [2] (RA) is on record as “considerably less potent than the comparable human receptor sequences”. The “Relative potency (REC) RA” value in series [2] (setting [5]) worked out at 0.2.

On to `CC(C)C[C@H](NC(=O)[C@H](Cc1ccccc1)NC(=O)[C@H](Cc1ccccc1)NC(=O)[C@@H](N)CO)C(=O)N[C@@H](CCCNC(=N)N)C(=O)N[C@@H](CC(N)=O)C(=O)N1CCC[C@H]1C(=O)O` [Ra-P7, SFFLRNP] (H-SFFLRNP-OH), for which the “Relative potency (REC) RLM” value in series [3] turned out to be 0.3. Further, in series [2] (setting [5]), the “Relative potency (REC) RA” value is listed as 0.6.

As for `O=c1c(-c2ccc(O)cc2)coc2cc(O)cc(O)c12` [genistein, reference compound], the “Effect of inhibitor … of P5--NH2 and Pr-P4” value in series [1] is listed as “similarly effective”. In addition, in series [3] (RLM), the “Effect of inhibitor on contractile action of carbachol” value is “unaffected”. Also, the “Inhibition of the RLM response to P5-NH2” value in series [3] (mean ±S.E.M. for n=6) is 77±3 % inhibition.

Regarding `COc1cc2ncnc(Nc3cccc(Cl)c3)c2cc1OC` [tyrphostin, Tyrphostin, reference compound], the “Effect of inhibitor … of P5--NH2 and Pr-P4” value in series [1] was “blocked”. Besides, the “Sensitivity of the RLM response to P5-NH2 to the inhibitor” value in series [3] was “quite sensitive”.

For the compound `COC(=O)[C@H](CCCNC(=N)N)NC(=O)[C@H](CC(C)C)NC(=O)[C@H](CC(C)C)NC(=O)[C@H](Cc1ccccc1)NC(=O)[C@@H](N)CO` [P5-OCH-3, S42 FLLR46 -O-Methyl], the “Relative potency (REC) GLM” value in series [1] was found to be 0.1. Also, the “Relative potency (REC) RA” value in series [2] turned out to be 0.1. For the same compound, the “Agonist (relaxation) activity” value in series [2] (RA) is on record as “partial agonist”.

With `CC(C)C[C@H](NC(=O)[C@H](Cc1ccccc1)NC(=O)[C@H](Cc1ccccc1)NC(=O)[C@@H](N)CO)C(=O)N[C@@H](CCCNC(=N)N)C(=O)O` [Ra-P5, SFFLR] (H-SFFLR-OH), the “Relative potency (REC) RLM” value in series [3] was found to be 1.0. The “Relative potency (REC) RA” value in series [2] (setting [5]) amounted to 4.4.
